For the first experiment, the target named is memapsin 2 (Homo sapiens, UniProt P56817). The experiment in a line: Inhibition of memapsin 2 catalytic activity toward fluorogenic substrate FS-2. The class given is biochemical. Particulars: pH 4, 37° C., 20 minutes pre-incubation, tight-binding model; symbol outside parentheses; read-out: Activity against memapsin 2: Ki. Here is the method:
Inhibition Of Memapsin 2. […] Potency of compounds were determined by measurement of their inhibition of memapsin 2 catalytic activity toward a fluorescent substrate. […] Briefly, assays were performed at pH 4, 37° C., by pre-incubation of memapsin 2 enzyme with compound for 20 minutes. Activity measure was initiated by addition of a fluorogenic substrate FS-2 (Bachem Americas, Torrance, Calif.). Fluorescent signal increase over time was measured as a rate of hydrolysis of the peptide substrate. […]
memapsin 2 (Homo sapiens, UniProt P56817), sequence (P56817 46-501): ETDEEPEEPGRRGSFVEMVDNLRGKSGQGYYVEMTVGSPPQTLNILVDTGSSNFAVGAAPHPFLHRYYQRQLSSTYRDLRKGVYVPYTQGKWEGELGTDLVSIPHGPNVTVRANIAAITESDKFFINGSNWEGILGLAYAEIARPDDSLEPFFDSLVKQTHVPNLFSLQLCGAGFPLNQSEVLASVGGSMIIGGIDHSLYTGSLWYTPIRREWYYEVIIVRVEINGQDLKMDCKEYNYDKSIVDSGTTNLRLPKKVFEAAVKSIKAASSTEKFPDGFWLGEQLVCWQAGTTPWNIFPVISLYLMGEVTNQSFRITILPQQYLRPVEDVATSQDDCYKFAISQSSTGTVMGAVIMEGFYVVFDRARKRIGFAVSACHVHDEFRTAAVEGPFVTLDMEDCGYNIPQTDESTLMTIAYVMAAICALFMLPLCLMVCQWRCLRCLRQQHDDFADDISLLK
The Ki is a dissociation constant, usually derived from enzyme kinetics or from competition with a known ligand. Consider `Cc1csc(CN(C(=O)OC[C@@H](C2CCCCC2)N2Cc3cc(Oc4ccccc4)ccc3N=C2N)C2CCCCC2)n1` [Inhibitor 119], for which the inhibition constant (Ki) was < 500 nM.
For `CN(CCC[C@@H](C1CCCCC1)N1Cc2cc(Oc3ccccc3)ccc2N=C1N)C1CCCCC1` [Inhibitor 0188], the inhibitory constant (Ki) was < 50 nM.
With `CN(C(=O)OC[C@@H](C1CCCOC1)N1Cc2cc(Oc3ccccc3)ccc2N=C1N)C1CCCCC1` (some centres unmarked) [Inhibitor 0318], the Ki is < 500 nM.
Regarding `CN(C(=O)OC[C@@H](c1ccccc1)N1Cc2cc(Oc3ccccc3)ccc2N=C1N)C1CCCCC1` [Inhibitor 0328], the Ki is < 5000 nM.
On the same count and under the same terms, the result for `CN(CCC[C@@H](C1CCCOC1)N1Cc2cc(Oc3ccccc3)ccc2N=C1N)C1CCCCC1` (some centres unmarked) [Inhibitor 0408] reads < 500 nM; that for `Cc1csc(CN(CCC[C@@H](C2CCCCC2)N2Cc3cc(Oc4ccccc4)ccc3N=C2N)C2CCCCC2)n1` [Inhibitor 409], < 500 nM; that for `CN(CCC[C@@H](c1ccccc1)N1Cc2cc(Oc3ccccc3)ccc2N=C1N)C1CCCCC1` [Inhibitor 0418], < 5000 nM.
Same read-out and setting: the same measure for `NC1=Nc2ccc(Oc3ccccc3)cc2CN1[C@@H](CCNCC1CCCCC1)C1CCCCC1` [Inhibitor 0428]: < 500 nM; for `CC(NCC[C@@H](C1CCCCC1)N1Cc2cc(Oc3ccccc3)ccc2N=C1N)c1ccccc1` (some centres unmarked) [Inhibitor 0438]: < 500 nM; for `NC1=Nc2ccc(Oc3ccccc3)cc2CN1[C@@H](CCN(Cc1ccccc1)Cc1ccccc1)C1CCCCC1` [Inhibitor 0448]: < 500 nM.
Take `CN(C(=O)OC[C@@H](C1CCCCC1)N1Cc2cc(Oc3ccccc3)ccc2N=C1N)C1CCCCC1` [Inhibitor 0458]: the inhibition constant (Ki) is < 50 nM.
As for `COC[C@@H](NC(=O)OC[C@@H](C1CCCCC1)N1Cc2cc(Oc3ccccc3)ccc2N=C1N)C(=O)OC` [Inhibitor 0469], the Ki is < 500 nM.
As to `Cc1nc(CN(CCC[C@@H](C2CCCCC2)N2Cc3cc(Oc4ccccc4)ccc3N=C2N)C2CCCCC2)c(C)o1` [Inhibitor 0509], the inhibitory constant (Ki) was < 500 nM.
Turning to `Cc1nc(CN(C(=O)OC[C@@H](C2CCCCC2)N2Cc3cc(Oc4ccccc4)ccc3N=C2N)C2CCCCC2)co1` [Inhibitor 0519], the Ki was < 5000 nM.
On to `CN(CCC[C@@H](C1CCCCC1)N1Cc2cc(Oc3ccccc3)ccc2N=C1N)c1ccccc1` [Inhibitor 0538], for which the Ki was < 500 nM.
Regarding `CN(C(=O)OCC(C1CCOC1)N1Cc2cc(Oc3ccccc3)ccc2N=C1N)C1CCCCC1` (centres unmarked) [Inhibitor 0548], the Ki is < 500 nM.
As to `CN(CCCC(C1CCOC1)N1Cc2cc(Oc3ccccc3)ccc2N=C1N)C1CCCCC1` (centres unmarked) [Inhibitor 0568], the Ki was < 500 nM.
As to `Cc1nc(CN(C(=O)OC[C@@H](C2CCCCC2)N2Cc3cc(Oc4ccccc4)ccc3N=C2N)C2CCCCC2)cs1` [Inhibitor 0579], the inhibitory constant (Ki) was < 5000 nM.
For the compound `Cc1nc(CN(CCC[C@@H](C2CCCCC2)N2Cc3cc(Oc4ccccc4)ccc3N=C2N)C2CCCCC2)cs1` [Inhibitor 0589], the Ki was < 500 nM.
On to `CN(C)CC[C@@H](C1CCCCC1)N1Cc2cc(Oc3ccccc3)ccc2N=C1N` [Inhibitor 0618], for which the Ki is < 5000 nM.
For the compound `CN(CC[C@@H](C1CCCCC1)N1Cc2cc(Oc3ccccc3)ccc2N=C1N)Cc1ccccc1` [Inhibitor 0628], the Ki is < 500 nM.
For the compound `CN(C(=O)OC[C@@H](C1CCCCC1)N1Cc2cc(Oc3ccccc3)ccc2N=C1N)C1CCCCC1O` (some centres unmarked) [Inhibitor 0648], the inhibition constant Ki is < 500 nM.
Same read-out and setting: the result for `NC1=Nc2ccc(Oc3ccccc3)cc2CN1[C@@H](COC(=O)NC1CCCCC1)C1CCCCC1` [Inhibitor 0658] reads < 500 nM; that for `CC(C)c1nc(CN(CCC[C@@H](C2CCCCC2)N2Cc3cc(Oc4ccccc4)ccc3N=C2N)C2CCCCC2)cs1` [Inhibitor 0659], < 500 nM; that for `NC1=Nc2ccc(Oc3ccccc3)cc2CN1[C@@H](COC(=O)NC1CCCCC1O)C1CCCCC1` (some centres unmarked) [Inhibitor 0668], < 500 nM.
Take `Cc1nc(C)c(CN(CCC[C@@H](C2CCCCC2)N2Cc3cc(Oc4ccccc4)ccc3N=C2N)C2CCCCC2)o1` [Inhibitor 0789]: the Ki was < 500 nM.
For the compound `Cc1nc(CCN(CCC[C@@H](C2CCCCC2)N2Cc3cc(Oc4ccccc4)ccc3N=C2N)C2CCCCC2)cs1` [Inhibitor 0809], the Ki is < 500 nM.
As to `Cc1nc(CN(C(=O)OC[C@@H](C2CCCCC2)N2Cc3cc(Oc4ccccc4)ccc3N=C2N)C2CCCCC2)c(C)o1` [Inhibitor 908], the Ki is < 500 nM.
Turning to `Cc1nc(CCN(CCC[C@@H](C2CCCCC2)N2Cc3cc(Oc4ccccc4)ccc3N=C2N)C2CCCCC2)co1` [Inhibitor 0909], the Ki is < 500 nM.
With `Cc1ncoc1CN(CCC[C@@H](C1CCCCC1)N1Cc2cc(Oc3ccccc3)ccc2N=C1N)C1CCCCC1` [Inhibitor 0929], the Ki was < 500 nM.
On the same count and under the same terms, the same measure for `NC1=Nc2ccc(Oc3ccccc3)cc2CN1[C@@H](CCCN(Cc1cscn1)C1CCCCC1)C1CCCCC1` [Inhibitor 0979]: < 500 nM.
In the case of `COC[C@H](NC(=O)OC[C@@H](C1CCCCC1)N1Cc2cc(Oc3ccccc3)ccc2N=C1N)C(=O)OC` [Inhibitor 0989], the inhibition constant (Ki) was < 500 nM.
As to `Cn1cc(CN(CCC[C@@H](C2CCCCC2)N2Cc3cc(Oc4ccccc4)ccc3N=C2N)C2CCCCC2)cn1` [Inhibitor 1049], the Ki is < 500 nM.
Consider `COCc1nc(CN(CCC[C@@H](C2CCCCC2)N2Cc3cc(Oc4ccccc4)ccc3N=C2N)C2CCCCC2)cs1` [Inhibitor 1099], for which the inhibition constant (Ki) was < 500 nM.
For `COCC(COC)N(C)C(=O)OC[C@@H](C1CCCCC1)N1Cc2cc(Oc3ccccc3)ccc2N=C1N` [Inhibitor 1139], the inhibition constant (Ki) is < 5000 nM.
Regarding `Cc1nc(CN(CCC[C@@H](C2CCCCC2)N2Cc3cc(Oc4cccnc4)ccc3N=C2N)C2CCCCC2)cs1` [Inhibitor 1209], the inhibitory constant (Ki) was < 5000 nM.
`Cc1nc(CN(CCC[C@@H](C2CCCCC2)N2Cc3cc(Oc4ccccn4)ccc3N=C2N)C2CCCCC2)cs1` [Inhibitor 1219]: the inhibition constant (Ki) is < 5000 nM.
In the case of `NC1=Nc2ccc(Oc3ccccc3)cc2CN1[C@@H](CCCN(Cc1ccoc1)C1CCCCC1)C1CCCCC1` [Inhibitor 1379], the Ki is < 500 nM.
For the compound `NC1=Nc2ccc(Oc3ccccc3)cc2CN1[C@@H](CCCN(Cc1cn[nH]c1)C1CCCCC1)C1CCCCC1` [Inhibitor 1509], the inhibition constant Ki is < 50 nM.
For the compound `Cc1[nH]ncc1CN(CCC[C@@H](C1CCCCC1)N1Cc2cc(Oc3ccccc3)ccc2N=C1N)C1CCCCC1` [Inhibitor 1519], the inhibition constant Ki was < 50 nM.

The target in a further experiment is T1, memapsin 2 (Cricetulus griseus, UniProt G3IAK4).
T1 construct: endogenous in cells; host or cells: Chinese hamster ovary cells over-expressing human APP695 (London and Swedish mutations)
T1 sequence (G3IAK4 22-501): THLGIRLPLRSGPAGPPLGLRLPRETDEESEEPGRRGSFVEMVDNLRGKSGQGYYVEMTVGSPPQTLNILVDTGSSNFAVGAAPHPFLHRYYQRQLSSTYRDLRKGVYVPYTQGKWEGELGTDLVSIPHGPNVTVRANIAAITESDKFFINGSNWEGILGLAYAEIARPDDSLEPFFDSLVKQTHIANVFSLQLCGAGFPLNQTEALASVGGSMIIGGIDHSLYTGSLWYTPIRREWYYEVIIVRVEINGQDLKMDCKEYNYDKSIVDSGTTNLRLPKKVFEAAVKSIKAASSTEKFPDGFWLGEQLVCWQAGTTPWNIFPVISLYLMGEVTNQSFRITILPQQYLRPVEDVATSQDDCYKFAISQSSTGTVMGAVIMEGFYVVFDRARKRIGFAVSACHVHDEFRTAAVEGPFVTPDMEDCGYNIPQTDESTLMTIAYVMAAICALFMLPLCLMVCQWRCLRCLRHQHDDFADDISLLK
The experiment in a line: Cellular Aβ IC50 determination (Aβ40 sandwich ELISA). It counts as cell-based. Particulars: symbol in parentheses; Chinese hamster ovary cells over-expressing human APP695 (London and Swedish mutations), Aβ40, 24 h; read-out: Activity against memapsin 2: (IC50). The protocol: Cellular Aβ C50 Determinations. The potency of compounds against memapsin 2 catalytic activity is determined in a cellular assay of Aβ production. […] Chinese hamster ovary cells that over-express human APP695 with the London and Swedish mutations are seeded in multi-well plates at 10% confluency. Compounds are dissolved in DMSO to concentrations near 1 mM, and diluted into culture media to a final concentration near 4 μM (final 0.4% DMSO). Compounds are diluted serially and applied to cells in multi-well plates 48 h after seeding. Incubation is continued in 5% CO2 at 37 degrees C. for 24 h. Aliquots are removed and assayed for Aβ40 content using a sandwich ELISA (BioSource International). Amount of Aβ40 over the range of concentration of compounds, relative to control incubations, are fit to a 4-parameter IC50 model.
On the technique in general: In an ELISA, binding on a coated surface is turned into a signal by an enzyme label.
The IC50 is the midpoint of a concentration-inhibition curve. For the compound `CN(CCC[C@@H](C1CCCCC1)N1Cc2cc(Oc3ccccc3)ccc2N=C1N)C1CCCCC1` [Inhibitor 0188], the IC50 is < 50 nM.
With `CN(C(=O)OC[C@@H](C1CCCOC1)N1Cc2cc(Oc3ccccc3)ccc2N=C1N)C1CCCCC1` (some centres unmarked) [Inhibitor 0318], the IC50 is < 5000 nM.
Consider `CN(C(=O)OC[C@@H](c1ccccc1)N1Cc2cc(Oc3ccccc3)ccc2N=C1N)C1CCCCC1` [Inhibitor 0328], for which the IC50 is < 5000 nM.
As to `CN(CCC[C@@H](c1ccccc1)N1Cc2cc(Oc3ccccc3)ccc2N=C1N)C1CCCCC1` [Inhibitor 0418], the half-maximal inhibitory concentration (IC50) was < 5000 nM.
Consider `NC1=Nc2ccc(Oc3ccccc3)cc2CN1[C@@H](CCN(Cc1ccccc1)Cc1ccccc1)C1CCCCC1` [Inhibitor 0448], for which the IC50 is < 5000 nM.
On to `CN(C(=O)OC[C@@H](C1CCCCC1)N1Cc2cc(Oc3ccccc3)ccc2N=C1N)C1CCCCC1` [Inhibitor 0458], for which the half-maximal inhibitory concentration (IC50) was > 5000 nM.
`CN(C(=O)OCC(C1CCOC1)N1Cc2cc(Oc3ccccc3)ccc2N=C1N)C1CCCCC1` (centres unmarked) [Inhibitor 0548]: the IC50 was < 5000 nM.
